Laboratory results as given in publication PMC12503911, “Cytotoxicity of Atropisomeric [1,1′‐Binaphthalene]‐2,2′‐Diamines (BINAM) and Analogs in Human Cancer Cells: Enantioselectivity, Structure–Activity Relationships, and Mechanism” (Chemmedchem, 2025).
Where two headings read alike, the source gives them in different places.

Columns and labels:
Test in all cases: biochemical
Design in all cases: 33PanQinase radiometric kinase activity assay, residual activity in % of control, contract lab Reaction Biology
Details in all cases: mean of intraexperimental duplicates, n = 1
[1] = target: T1, NEK9 (Homo sapiens, UniProt Q8TD19)
T1 sequence (Q8TD19 1-979): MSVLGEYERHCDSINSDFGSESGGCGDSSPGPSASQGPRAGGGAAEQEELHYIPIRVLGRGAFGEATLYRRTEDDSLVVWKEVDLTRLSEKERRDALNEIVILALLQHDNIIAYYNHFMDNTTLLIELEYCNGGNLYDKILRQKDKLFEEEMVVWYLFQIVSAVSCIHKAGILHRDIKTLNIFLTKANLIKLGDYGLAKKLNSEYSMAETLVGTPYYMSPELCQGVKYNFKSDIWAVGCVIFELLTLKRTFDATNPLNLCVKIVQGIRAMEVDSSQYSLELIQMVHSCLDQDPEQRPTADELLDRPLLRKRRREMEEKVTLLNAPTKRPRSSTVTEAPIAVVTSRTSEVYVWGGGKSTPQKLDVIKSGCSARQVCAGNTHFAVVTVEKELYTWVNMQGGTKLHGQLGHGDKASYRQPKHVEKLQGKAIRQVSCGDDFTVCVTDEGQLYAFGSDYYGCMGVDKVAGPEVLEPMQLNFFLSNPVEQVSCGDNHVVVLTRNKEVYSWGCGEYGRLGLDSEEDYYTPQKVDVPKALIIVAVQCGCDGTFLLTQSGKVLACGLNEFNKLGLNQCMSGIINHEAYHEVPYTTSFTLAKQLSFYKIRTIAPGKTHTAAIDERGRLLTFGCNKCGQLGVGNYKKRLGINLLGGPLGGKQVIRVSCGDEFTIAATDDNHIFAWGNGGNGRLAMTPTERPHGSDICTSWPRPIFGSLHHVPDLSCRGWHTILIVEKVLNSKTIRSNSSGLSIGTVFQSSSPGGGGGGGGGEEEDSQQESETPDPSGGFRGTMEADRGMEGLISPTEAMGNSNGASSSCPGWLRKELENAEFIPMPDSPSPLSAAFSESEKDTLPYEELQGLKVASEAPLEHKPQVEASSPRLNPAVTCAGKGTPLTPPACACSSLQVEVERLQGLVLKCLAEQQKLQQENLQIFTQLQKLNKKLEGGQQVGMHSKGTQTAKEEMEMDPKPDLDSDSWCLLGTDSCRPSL
Description: (§1) Kinase Screening was performed at Reaction Biology (Freiburg, Germany) by using the ^33PanQinase Assay.^[ [90] ^] Based on this knowledge, we commissioned a kinase screening by the firm Reaction Biology, targeting those kinases whose inhibition has shown an indirect effect on microtubules. In our selection, we included additional kinases that are known to be involved in centrosome amplification (PLK4^[ [82] ^]), centrosome clustering (CDK1/2,^[ [83] ^] PLK1^[ [84] ^]), spindle multipolarity (SRC^[ [85] ^]), microtubule dynamics (AKT1^[ [86] ^]), and LIMK1/2 activation (ROCK1^[ [87] ^]) or are crucial for the mitosis (BUB1B, NEK2/9, WEE1^[ [88] ^]). Nonetheless, 1(R) and 1(S) at 10 µM had almost no inhibitory effects on any of the chosen kinases (Table 4 ). Only Aurora A (mean residual activity for 1(R): 86%, 1(S): 98%) and ASK1 (mean residual activity for 1(R): 90%, 1(S): 117%) were slightly enantioselectively impacted. However, we theorize that those marginal inhibitions are not explanatory for the antiproliferative and morphological effects of 1(R) on cancer cells.

[2] = target: T2, PLK4 (Homo sapiens, UniProt O00444)
T2 sequence (O00444 1-970): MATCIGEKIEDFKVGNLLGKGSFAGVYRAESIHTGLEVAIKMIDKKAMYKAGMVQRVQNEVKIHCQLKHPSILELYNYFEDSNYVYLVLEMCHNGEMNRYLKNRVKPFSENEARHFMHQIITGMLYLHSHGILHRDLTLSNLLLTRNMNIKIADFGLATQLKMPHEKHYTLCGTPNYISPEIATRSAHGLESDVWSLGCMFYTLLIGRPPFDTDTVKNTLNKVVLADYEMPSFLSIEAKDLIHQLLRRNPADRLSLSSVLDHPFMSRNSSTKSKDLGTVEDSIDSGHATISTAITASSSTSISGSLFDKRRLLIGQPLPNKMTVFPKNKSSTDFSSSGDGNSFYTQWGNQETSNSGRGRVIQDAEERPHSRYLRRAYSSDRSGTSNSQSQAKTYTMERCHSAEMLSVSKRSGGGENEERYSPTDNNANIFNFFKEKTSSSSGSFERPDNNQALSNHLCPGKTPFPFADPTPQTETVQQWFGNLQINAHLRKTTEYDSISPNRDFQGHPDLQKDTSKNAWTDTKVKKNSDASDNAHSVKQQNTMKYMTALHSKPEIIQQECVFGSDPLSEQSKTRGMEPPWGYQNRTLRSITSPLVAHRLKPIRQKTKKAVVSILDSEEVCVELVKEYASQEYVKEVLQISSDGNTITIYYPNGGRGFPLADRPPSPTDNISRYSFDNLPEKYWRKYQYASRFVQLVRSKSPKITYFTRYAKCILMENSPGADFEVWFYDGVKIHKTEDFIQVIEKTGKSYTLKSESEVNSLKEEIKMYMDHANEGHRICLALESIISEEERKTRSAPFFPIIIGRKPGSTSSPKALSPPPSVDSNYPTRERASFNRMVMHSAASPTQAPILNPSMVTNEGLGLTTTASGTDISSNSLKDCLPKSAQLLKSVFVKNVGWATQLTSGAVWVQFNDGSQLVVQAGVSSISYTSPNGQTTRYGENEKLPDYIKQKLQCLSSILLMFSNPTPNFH
Description: as §1

[3] = target: BUB1B (Homo sapiens, UniProt O60566)
Chain of BUB1B (O60566 whole entry): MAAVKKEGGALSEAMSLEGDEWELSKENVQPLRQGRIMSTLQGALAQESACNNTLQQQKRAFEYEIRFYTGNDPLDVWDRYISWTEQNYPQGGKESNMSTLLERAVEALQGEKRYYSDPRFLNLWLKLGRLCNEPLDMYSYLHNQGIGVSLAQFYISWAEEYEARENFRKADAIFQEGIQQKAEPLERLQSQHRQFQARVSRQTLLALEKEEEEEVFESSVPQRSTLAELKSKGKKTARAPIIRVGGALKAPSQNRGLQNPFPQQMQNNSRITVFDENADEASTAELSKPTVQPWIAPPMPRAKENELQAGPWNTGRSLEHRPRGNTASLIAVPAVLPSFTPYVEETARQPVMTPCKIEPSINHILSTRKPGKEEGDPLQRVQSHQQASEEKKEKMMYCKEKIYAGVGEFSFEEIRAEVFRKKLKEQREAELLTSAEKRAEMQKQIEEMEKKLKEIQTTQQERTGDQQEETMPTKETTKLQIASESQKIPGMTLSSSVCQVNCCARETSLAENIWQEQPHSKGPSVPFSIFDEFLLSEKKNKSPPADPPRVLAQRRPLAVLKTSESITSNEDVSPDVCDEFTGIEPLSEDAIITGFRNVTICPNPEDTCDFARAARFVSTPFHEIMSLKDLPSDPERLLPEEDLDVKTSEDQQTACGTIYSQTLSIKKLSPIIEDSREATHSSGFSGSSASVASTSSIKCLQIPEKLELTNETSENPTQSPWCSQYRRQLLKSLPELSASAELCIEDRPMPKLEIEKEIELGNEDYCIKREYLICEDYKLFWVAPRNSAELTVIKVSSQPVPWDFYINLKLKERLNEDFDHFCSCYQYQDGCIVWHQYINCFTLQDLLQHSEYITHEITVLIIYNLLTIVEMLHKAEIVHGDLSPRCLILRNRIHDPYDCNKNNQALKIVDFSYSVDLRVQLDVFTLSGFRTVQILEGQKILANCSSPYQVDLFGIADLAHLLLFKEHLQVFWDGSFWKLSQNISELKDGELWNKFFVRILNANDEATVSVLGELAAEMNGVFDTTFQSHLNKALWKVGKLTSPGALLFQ
Description: as §1

[4] = read-out: Residual activities [% of control] / 1(R) 10 µM
[5] = read-out: Residual activities [% of control] / 1(S) 10 µM

SMILES: Nc1ccc2ccccc2c1-c1c(N)ccc2ccccc12 [1(R), (R)‐[1,1′‐binaphthalene]‐2,2′‐diamine]
- remaining activity at 10 µM [1, 4]: 94%
- remaining activity at 10 µM [2, 4]: 97%
- remaining activity at 10 µM [3, 4]: 118%

SMILES: Nc1ccc2ccccc2c1-c1c(N)ccc2ccccc12 [1(S), S‐BINAM]
- remaining activity at 10 µM [1, 5]: 96%
- remaining activity at 10 µM [2, 5]: 99%
- remaining activity at 10 µM [3, 5]: 111%
